According to ChEMBL document CHEMBL4507300 (2021):

What was measured:
[1] = target: Alpha-2B adrenergic receptor (Homo sapiens) (UniProt P18089); conditions: Compound concentration 10.0 uM
[2] = target: Serine/threonine-protein kinase B-raf (Homo sapiens) (UniProt P15056); conditions: Compound concentration 1000.0 nM
[3] = target: Mitogen-activated protein kinase kinase kinase kinase 2 (Homo sapiens) (UniProt Q12851); conditions: Compound concentration 1000.0 nM
[4] = target: Megakaryocyte-associated tyrosine-protein kinase (Homo sapiens) (UniProt P42679); conditions: Compound concentration 1000.0 nM
[5] = target: Death-associated protein kinase 3 (Homo sapiens) (UniProt O43293); conditions: Compound concentration 1000.0 nM
[6] = target: Receptor-interacting serine/threonine-protein kinase 1 (Homo sapiens) (UniProt Q13546); conditions: Compound concentration 1000.0 nM
[7] = target: Serine/threonine-protein kinase Nek2 (Homo sapiens) (UniProt P51955); conditions: Compound concentration 1000.0 nM
[8] = target: Dual specificity mitogen-activated protein kinase kinase 6 (Homo sapiens) (UniProt P52564); conditions: Compound concentration 1000.0 nM
[9] = tested on: Hepatocyte growth factor receptor (Homo sapiens), P08581 [M1250T]; conditions: Compound concentration 1000.0 nM
[10] = target: Muscarinic acetylcholine receptor M5 (Homo sapiens) (UniProt P08912); conditions: Compound concentration 10.0 uM
[11] = tested on: Tyrosine-protein kinase ABL1 (Homo sapiens), P00519 [F317I]; conditions: Compound concentration 1000.0 nM
[12] = target: Serine/threonine-protein kinase 24 (Homo sapiens) (UniProt Q9Y6E0); conditions: Compound concentration 1000.0 nM
[13] = target: Mitogen-activated protein kinase 12 (Homo sapiens) (UniProt P53778); conditions: Compound concentration 1000.0 nM
[14] = target: Alpha-1A adrenergic receptor (Homo sapiens) (UniProt P35348); conditions: Compound concentration 10.0 uM
[15] = target: 5-hydroxytryptamine receptor 1A (Homo sapiens) (UniProt P08908); conditions: Compound concentration 10.0 uM
[16] = tested on: Epidermal growth factor receptor (Homo sapiens), P00533 [G719S]; conditions: Compound concentration 1000.0 nM
[17] = target: Alpha-2C adrenergic receptor (Homo sapiens) (UniProt P18825); conditions: Compound concentration 10.0 uM
[18] = target: Insulin receptor-related protein (Homo sapiens) (UniProt P14616); conditions: Compound concentration 1000.0 nM
[19] = target: Serine/threonine-protein kinase ULK2 (Homo sapiens) (UniProt Q8IYT8); conditions: Compound concentration 1000.0 nM
[20] = target: Phosphatidylinositol 4,5-bisphosphate 3-kinase catalytic subunit beta isoform (Homo sapiens) (UniProt P42338); conditions: Compound concentration 1000.0 nM
[21] = target: Mitogen-activated protein kinase kinase kinase kinase 1 (Homo sapiens) (UniProt Q92918); conditions: Compound concentration 1000.0 nM
[22] = target: Fibroblast growth factor receptor 1 (Homo sapiens) (UniProt P11362); conditions: Compound concentration 1000.0 nM
[23] = target: Fibroblast growth factor receptor 3 (Homo sapiens) (UniProt P22607); conditions: Compound concentration 1000.0 nM
[24] = tested on: Tyrosine-protein kinase ABL1 (Homo sapiens), P00519 [F317L]; conditions: Compound concentration 1000.0 nM
[25] = target: Serine/threonine-protein kinase 32A (Homo sapiens) (UniProt Q8WU08); conditions: Compound concentration 1000.0 nM
[26] = target: Serine/threonine-protein kinase MRCK gamma (Homo sapiens) (UniProt Q6DT37); conditions: Compound concentration 1000.0 nM
[27] = target: Serine/threonine-protein kinase PAK 1 (Homo sapiens) (UniProt Q13153); conditions: Compound concentration 1000.0 nM
[28] = target: Serine/threonine-protein kinase 35 (Homo sapiens) (UniProt Q8TDR2); conditions: Compound concentration 1000.0 nM
[29] = target: Ribosomal protein S6 kinase alpha-3 (Homo sapiens) (UniProt P51812); conditions: Compound concentration 1000.0 nM
[30] = target: Mast/stem cell growth factor receptor Kit (Homo sapiens) (UniProt P10721); conditions: Compound concentration 1000.0 nM
[31] = target: Ephrin type-A receptor 6 (Homo sapiens) (UniProt Q9UF33); conditions: Compound concentration 1000.0 nM
[32] = target: Serine/threonine-protein kinase PAK 3 (Homo sapiens) (UniProt O75914); conditions: Compound concentration 1000.0 nM
[33] = target: NT-3 growth factor receptor (Homo sapiens) (UniProt Q16288); conditions: Compound concentration 1000.0 nM
[34] = target: Transient receptor potential cation channel subfamily M member 6 (Homo sapiens) (UniProt Q9BX84); conditions: Compound concentration 1000.0 nM
[35] = target: Cyclin-dependent kinase 17 (Homo sapiens) (UniProt Q00537); conditions: Compound concentration 1000.0 nM
[36] = tested on: Tyrosine-protein kinase ABL1 (Homo sapiens), P00519 [Q252H]; conditions: Compound concentration 1000.0 nM
[37] = tested on: Receptor-type tyrosine-protein kinase FLT3 (Homo sapiens), P36888 [D835H]; conditions: Compound concentration 1000.0 nM
[38] = target: Serine/threonine-protein kinase ULK3 (Homo sapiens) (UniProt Q6PHR2); conditions: Compound concentration 1000.0 nM
[39] = target: Focal adhesion kinase 1 (Homo sapiens) (UniProt Q05397); conditions: Compound concentration 1000.0 nM
[40] = target: Citron Rho-interacting kinase (Homo sapiens) (UniProt O14578); conditions: Compound concentration 1000.0 nM
[41] = target: Serine/threonine-protein kinase 38-like (Homo sapiens) (UniProt Q9Y2H1); conditions: Compound concentration 1000.0 nM
[42] = target: Phosphatidylinositol 4,5-bisphosphate 3-kinase catalytic subunit alpha isoform (Homo sapiens) (UniProt P42336); conditions: Compound concentration 1000.0 nM
[43] = tested on: Mast/stem cell growth factor receptor Kit (Homo sapiens), P10721 [D816V]; conditions: Compound concentration 1000.0 nM
[44] = target: Serine/threonine-protein kinase haspin (Homo sapiens) (UniProt Q8TF76); conditions: Compound concentration 1000.0 nM
[45] = target: Beta-1 adrenergic receptor (Homo sapiens) (UniProt P08588); conditions: Compound concentration 10.0 uM

Fibroblast growth factor receptor 3 (Homo sapiens), sequence (P22607 23-806 limits assumed): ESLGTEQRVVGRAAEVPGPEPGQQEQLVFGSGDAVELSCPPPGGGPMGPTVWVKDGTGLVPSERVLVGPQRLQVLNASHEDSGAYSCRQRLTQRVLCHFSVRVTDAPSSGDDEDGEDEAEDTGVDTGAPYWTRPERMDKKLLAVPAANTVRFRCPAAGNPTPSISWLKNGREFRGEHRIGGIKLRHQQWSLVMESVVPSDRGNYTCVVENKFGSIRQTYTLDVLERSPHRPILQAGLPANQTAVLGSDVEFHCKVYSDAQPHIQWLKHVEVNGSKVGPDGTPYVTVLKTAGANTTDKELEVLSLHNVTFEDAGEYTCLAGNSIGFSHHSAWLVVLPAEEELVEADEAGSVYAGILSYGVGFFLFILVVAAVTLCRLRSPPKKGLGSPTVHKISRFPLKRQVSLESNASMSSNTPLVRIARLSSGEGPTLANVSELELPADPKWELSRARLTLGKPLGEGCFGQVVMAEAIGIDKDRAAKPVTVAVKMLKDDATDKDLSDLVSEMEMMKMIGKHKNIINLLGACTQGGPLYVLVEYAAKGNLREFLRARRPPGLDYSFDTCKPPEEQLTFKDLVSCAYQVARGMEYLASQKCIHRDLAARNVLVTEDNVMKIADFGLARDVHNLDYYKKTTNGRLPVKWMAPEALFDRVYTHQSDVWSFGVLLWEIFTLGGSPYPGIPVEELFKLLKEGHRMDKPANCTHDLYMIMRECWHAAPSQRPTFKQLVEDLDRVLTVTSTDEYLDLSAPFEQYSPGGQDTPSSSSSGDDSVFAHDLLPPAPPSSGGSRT
Serine/threonine-protein kinase ULK3 (Homo sapiens), sequence (Q6PHR2 whole entry): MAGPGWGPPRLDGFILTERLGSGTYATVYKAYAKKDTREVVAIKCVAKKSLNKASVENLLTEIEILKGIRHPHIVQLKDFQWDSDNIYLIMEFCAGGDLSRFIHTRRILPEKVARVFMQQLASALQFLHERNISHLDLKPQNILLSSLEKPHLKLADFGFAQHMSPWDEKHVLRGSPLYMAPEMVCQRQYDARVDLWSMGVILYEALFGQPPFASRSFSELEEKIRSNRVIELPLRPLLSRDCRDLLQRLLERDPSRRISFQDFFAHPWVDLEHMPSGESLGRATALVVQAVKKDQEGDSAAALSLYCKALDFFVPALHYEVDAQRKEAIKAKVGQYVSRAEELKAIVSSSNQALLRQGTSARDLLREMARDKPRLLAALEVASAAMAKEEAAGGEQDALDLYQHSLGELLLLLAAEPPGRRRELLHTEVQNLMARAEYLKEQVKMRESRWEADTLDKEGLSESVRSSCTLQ
Mast/stem cell growth factor receptor Kit (Homo sapiens), sequence (P10721 whole entry): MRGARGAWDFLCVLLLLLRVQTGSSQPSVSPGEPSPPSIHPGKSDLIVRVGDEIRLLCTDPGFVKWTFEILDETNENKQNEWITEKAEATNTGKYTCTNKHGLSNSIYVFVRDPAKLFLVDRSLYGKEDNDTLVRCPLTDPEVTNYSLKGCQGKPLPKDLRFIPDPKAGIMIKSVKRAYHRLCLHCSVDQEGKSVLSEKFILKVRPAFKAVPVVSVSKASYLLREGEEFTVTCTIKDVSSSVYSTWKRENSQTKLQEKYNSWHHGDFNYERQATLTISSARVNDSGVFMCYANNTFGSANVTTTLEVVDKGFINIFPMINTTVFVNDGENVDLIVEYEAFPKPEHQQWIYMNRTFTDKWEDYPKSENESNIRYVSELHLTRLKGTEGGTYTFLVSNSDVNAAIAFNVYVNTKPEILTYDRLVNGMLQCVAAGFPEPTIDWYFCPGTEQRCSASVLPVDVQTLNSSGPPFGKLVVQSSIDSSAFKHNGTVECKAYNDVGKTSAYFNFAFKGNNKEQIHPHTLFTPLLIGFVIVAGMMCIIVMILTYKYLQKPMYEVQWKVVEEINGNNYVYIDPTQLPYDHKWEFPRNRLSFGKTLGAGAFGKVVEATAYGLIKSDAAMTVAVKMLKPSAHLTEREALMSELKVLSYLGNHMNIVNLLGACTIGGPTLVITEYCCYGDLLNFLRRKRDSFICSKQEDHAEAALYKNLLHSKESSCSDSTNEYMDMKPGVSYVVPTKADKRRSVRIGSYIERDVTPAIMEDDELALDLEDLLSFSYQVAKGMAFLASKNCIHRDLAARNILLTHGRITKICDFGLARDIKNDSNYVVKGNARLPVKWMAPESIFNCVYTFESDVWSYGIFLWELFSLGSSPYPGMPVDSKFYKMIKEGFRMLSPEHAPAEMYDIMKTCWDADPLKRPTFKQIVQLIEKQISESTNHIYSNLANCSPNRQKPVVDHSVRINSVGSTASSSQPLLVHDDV
Ribosomal protein S6 kinase alpha-3 (Homo sapiens), sequence (P51812 whole entry): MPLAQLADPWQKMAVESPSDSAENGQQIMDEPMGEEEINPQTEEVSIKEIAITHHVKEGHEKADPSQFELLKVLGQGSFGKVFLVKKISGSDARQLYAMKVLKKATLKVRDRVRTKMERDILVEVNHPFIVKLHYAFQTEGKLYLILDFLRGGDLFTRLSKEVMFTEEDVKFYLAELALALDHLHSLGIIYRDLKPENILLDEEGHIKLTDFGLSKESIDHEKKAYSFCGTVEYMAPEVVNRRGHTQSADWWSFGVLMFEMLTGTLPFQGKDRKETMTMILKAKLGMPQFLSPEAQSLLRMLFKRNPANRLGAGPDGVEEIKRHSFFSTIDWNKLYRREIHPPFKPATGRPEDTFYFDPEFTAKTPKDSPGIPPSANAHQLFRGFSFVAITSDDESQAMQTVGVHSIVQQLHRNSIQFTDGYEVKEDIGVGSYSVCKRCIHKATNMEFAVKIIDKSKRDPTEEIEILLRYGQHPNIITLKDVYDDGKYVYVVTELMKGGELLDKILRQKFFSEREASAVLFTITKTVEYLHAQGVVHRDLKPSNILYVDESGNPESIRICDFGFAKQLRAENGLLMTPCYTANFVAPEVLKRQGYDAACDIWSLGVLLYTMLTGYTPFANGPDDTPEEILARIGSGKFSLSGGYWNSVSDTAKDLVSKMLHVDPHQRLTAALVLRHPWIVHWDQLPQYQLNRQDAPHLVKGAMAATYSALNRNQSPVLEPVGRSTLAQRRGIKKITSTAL
Focal adhesion kinase 1 (Homo sapiens), sequence (Q05397 2-1052 limits assumed): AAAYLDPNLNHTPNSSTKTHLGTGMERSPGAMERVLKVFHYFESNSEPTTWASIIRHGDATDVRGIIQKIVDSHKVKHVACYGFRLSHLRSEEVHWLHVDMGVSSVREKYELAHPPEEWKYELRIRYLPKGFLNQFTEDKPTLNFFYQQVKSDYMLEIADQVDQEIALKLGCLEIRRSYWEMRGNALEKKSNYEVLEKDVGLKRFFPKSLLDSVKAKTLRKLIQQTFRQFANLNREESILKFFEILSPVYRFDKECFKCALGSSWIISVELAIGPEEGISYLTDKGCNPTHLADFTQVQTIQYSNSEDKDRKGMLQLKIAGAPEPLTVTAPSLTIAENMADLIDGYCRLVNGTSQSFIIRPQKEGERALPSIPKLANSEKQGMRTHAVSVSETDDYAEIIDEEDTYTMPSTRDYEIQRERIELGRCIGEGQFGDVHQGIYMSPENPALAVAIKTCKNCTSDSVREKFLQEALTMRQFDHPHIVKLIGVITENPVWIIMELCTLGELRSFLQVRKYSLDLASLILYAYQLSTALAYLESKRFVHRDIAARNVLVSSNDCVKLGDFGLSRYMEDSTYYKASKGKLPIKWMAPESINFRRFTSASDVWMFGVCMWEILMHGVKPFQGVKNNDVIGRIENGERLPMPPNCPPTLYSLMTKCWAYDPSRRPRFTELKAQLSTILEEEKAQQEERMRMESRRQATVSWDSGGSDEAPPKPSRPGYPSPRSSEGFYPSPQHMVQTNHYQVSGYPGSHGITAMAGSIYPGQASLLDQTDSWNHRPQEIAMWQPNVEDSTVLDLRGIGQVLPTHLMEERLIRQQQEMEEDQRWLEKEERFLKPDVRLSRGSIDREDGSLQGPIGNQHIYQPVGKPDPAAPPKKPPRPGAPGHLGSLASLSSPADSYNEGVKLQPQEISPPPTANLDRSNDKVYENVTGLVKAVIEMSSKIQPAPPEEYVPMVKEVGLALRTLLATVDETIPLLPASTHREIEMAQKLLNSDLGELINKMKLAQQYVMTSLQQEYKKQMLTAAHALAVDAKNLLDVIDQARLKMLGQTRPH
Serine/threonine-protein kinase 24 (Homo sapiens), sequence (Q9Y6E0 whole entry, looked up): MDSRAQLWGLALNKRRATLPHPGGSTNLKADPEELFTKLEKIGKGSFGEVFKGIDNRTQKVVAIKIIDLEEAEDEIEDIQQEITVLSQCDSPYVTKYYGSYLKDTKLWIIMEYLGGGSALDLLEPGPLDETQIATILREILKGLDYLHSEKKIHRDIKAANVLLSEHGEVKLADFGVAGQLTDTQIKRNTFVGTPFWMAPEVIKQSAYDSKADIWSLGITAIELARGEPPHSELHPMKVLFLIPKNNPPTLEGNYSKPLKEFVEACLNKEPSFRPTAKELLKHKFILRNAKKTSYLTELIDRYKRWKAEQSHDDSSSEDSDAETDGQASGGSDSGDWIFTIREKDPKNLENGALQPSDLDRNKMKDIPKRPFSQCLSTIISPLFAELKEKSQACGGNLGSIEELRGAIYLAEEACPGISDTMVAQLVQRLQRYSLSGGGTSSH
Muscarinic acetylcholine receptor M5 (Homo sapiens), sequence (P08912 whole entry): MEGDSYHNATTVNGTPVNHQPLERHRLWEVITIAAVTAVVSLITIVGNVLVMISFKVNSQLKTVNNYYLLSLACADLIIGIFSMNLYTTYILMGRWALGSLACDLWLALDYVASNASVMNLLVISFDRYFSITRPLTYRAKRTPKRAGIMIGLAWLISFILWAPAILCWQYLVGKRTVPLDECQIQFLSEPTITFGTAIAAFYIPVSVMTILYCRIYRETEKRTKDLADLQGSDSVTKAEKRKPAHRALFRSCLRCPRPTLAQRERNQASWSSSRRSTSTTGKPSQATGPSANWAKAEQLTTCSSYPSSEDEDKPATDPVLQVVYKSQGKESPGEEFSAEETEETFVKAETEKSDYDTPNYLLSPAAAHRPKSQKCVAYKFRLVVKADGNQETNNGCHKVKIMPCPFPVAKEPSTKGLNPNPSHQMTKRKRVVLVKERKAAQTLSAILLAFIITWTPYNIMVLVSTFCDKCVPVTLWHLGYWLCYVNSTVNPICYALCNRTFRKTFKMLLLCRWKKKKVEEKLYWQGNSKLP
Mast/stem cell growth factor receptor Kit (Homo sapiens), P10721 [D816V], sequence (P10721 whole entry D816V): as the sequence (P10721 whole entry) above, with D816V counted along it

COc1cccc(CNC(=O)c2nc3scc(COCc4ccc(C(=O)O)cc4)c3c(=O)[nH]2)c1 [T-26c]
inactive: inhibition [1] 11% | residual activity [2] 72.8% | residual activity [3] 83% | residual activity [4] 97.8% | residual activity [5] 92.2% | residual activity [6] 97.4% | residual activity [7] 100% | residual activity [8] 100% | residual activity [9] 98% | inhibition [10] -7.42% | residual activity [11] 62.4% | residual activity [12] 100% | residual activity [13] 92.1% | inhibition [14] -1.51% | inhibition [15] 7.7% | residual activity [16] 100% | inhibition [17] 4.23% | residual activity [18] 100% | residual activity [19] 70.8% | residual activity [20] 54.8% | residual activity [21] 100% | residual activity [22] 86.5% | residual activity [23] 100% | residual activity [24] 78.7% | residual activity [25] 100% | residual activity [26] 99.4% | residual activity [27] 100% | residual activity [28] 93.6% | residual activity [29] 100% | residual activity [30] 93% | residual activity [31] 85.4% | residual activity [32] 51.9% | residual activity [33] 76.3% | residual activity [34] 81.8% | residual activity [35] 87.8% | residual activity [36] 91.4% | residual activity [37] 92.9% | residual activity [38] 76% | residual activity [39] 100% | residual activity [40] 100% | residual activity [41] 87.7% | residual activity [42] 78.8% | residual activity [43] 100% | residual activity [44] 92.5% | inhibition [45] 29.9%
